Counter-ions that a name gives are not always drawn.

This test relates to E. coli MG1655. Put plainly: High-throughput screening of FDA-approved drug library for antibiotic adjuvants (growth inhibition, OD600). The class given is cell-based, Escherichia coli. As to conditions: library drug alone, LB medium, 96-well, 8 h static culture at 37°C, relative to PMBN (positive) and DMSO (negative) controls, %, table head prints no unit.
For the compound `CC1(C)S[C@@H]2[C@H](NC(=O)C(c3ccccc3)S(=O)(=O)O)C(=O)N2[C@H]1C(=O)O.[Na].[Na]` (stereo partly shown) [Sulbenicillin Sodium], the “Growth inhibition, Compound” value is given as 90%. To `CCn1nc(C(=O)O)c(=O)c2cc3c(cc21)OCO3` [Cinoxacin] belongs 88%; to `Cc1cc(C2CCCCC2)n(O)c(=O)c1` [Ciclopirox], 70%; to `CCN1CCN(C(=O)N[C@@H](C(=O)N[C@@H]2C(=O)N3C(C(=O)O)=C(CSc4nnnn4C)CS[C@H]23)c2ccc(O)cc2)C(=O)C1=O` [Cefoperazone], 100%. Turning to `NC[C@@H]1O[C@H](O[C@H]2[C@@H](O)[C@H](O[C@@H]3[C@@H](O)[C@H](N)C[C@H](N)[C@H]3O[C@H]3O[C@H](CO)[C@@H](O)[C@H](O)[C@H]3N)O[C@@H]2CO)[C@H](N)[C@@H](O)[C@@H]1O` [Paromomycin Sulfate], the “Growth inhibition, Compound” value amounted to 108%. With `CC1(C)S[C@@H]2[C@H](NC(=O)[C@H](N)c3ccccc3)C(=O)N2[C@H]1C(=O)O` [Ampicillin sodium], the “Growth inhibition, Compound” value amounted to 91%.

For the compound `NC[C@H]1O[C@H](O[C@H]2[C@H](O)[C@@H](O[C@H]3O[C@H](CO)[C@@H](O)[C@H](N)[C@H]3O)[C@H](N)C[C@@H]2N)[C@H](N)[C@@H](O)[C@@H]1O` [Bekanamycin], the “Growth inhibition, Compound” value came out at 106%. The result for `COc1c(N2CCNC(C)C2)c(F)cc2c(=O)c(C(=O)O)cn(C3CC3)c12` (stereo not shown) [Gatifloxacin] reads 100%; that for `CN[C@@H]1[C@@H](O)[C@@H](O[C@@H]2[C@@H](O)[C@H](O[C@H]3OC(CN)=CC[C@H]3N)[C@@H](N)C[C@H]2N)OC[C@]1(C)O` [Sisomicin Sulfate], 105%.

As for `CCn1cc(C(=O)O)c(=O)c2cc(F)c(N3CCNCC3)cc21` [Norfloxacin], the “Growth inhibition, Compound” value is listed as 99%. The result for `O=C(Nc1ccc(Cl)cc1)c1cc(Br)ccc1O` [Salifungin] reads 67%. Take `CCN1CCN(c2cc3c(cc2F)c(=O)c(C(=O)O)cn3C2CC2)CC1` [Enrofloxacin]: the “Growth inhibition, Compound” value was 95%. Take `C[C@@H]1CN(c2c(F)c(N)c3c(=O)c(C(=O)O)cn(C4CC4)c3c2F)C[C@H](C)N1` [Sparfloxacin]: the “Growth inhibition, Compound” value was 96%. To `CC1(C)S[C@@H]2[C@H](NC(=O)[C@H](NC(=O)N3CCN(S(C)(=O)=O)C3=O)c3ccccc3)C(=O)N2[C@H]1C(=O)O` [Mezlocillin Sodium] belongs 89%; to `CSCC1CN(/N=C/c2ccc([N+](=O)[O-])o2)C(=O)O1` (stereo not shown) [Nifuratel], 108%. The result for `Oc1ccc(Cl)c2cccnc12` [Dermofongin] reads 85%; that for `COc1c(N2C[C@@H]3CCCN[C@@H]3C2)c(F)cc2c(=O)c(C(=O)O)cn(C3CC3)c12` [Moxifloxacin], 101%. To `CO/N=C(\C(=O)N[C@@H]1C(=O)N2C(C(=O)[O-])=C(C[n+]3ccc(N)n3CCO)CS[C@H]12)c1csc(N)n1.O=S(=O)(O)O` [Cefoselis Sulfate] belongs 107%.

For `CN[C@@H]1[C@H](O)[C@H](NC)[C@H]2O[C@@]3(O)C(=O)C[C@@H](C)O[C@H]3O[C@@H]2[C@H]1O.Cl.Cl` [Spectinomycin dihydrochloride], the “Growth inhibition, Compound” value is given as 92%. On to `[H]/N=C(\N/C(=N/[H])NCCCCCCNC(=N)NC(=N)Nc1ccc(Cl)cc1)Nc1ccc(Cl)cc1` [Chlorhexidine hydrochloride], for which the “Growth inhibition, Compound” value was 107%. The result for `CCn1cc(C(=O)O)c(=O)c2cc(F)c(N3CCNC(C)C3)c(F)c21` (stereo not shown) [Lomefloxacin hydrochloride] reads 107%; that for `CO[C@@]1(NC(=O)C2SC(=C(C(N)=O)C(=O)O)S2)C(=O)N2C(C(=O)O)=C(CSc3nnnn3C)CS[C@@H]21` (stereo partly shown) [Cefotetan], 97%.

Regarding `O=C(N/N=C/c1ccc([N+](=O)[O-])o1)c1ccc(O)cc1` [Nifuroxazide], the “Growth inhibition, Compound” value is recorded as 102%. With `C[C@@H](O)[C@H]1C(=O)N2C(C(=O)O)=C(S[C@@H]3CN[C@H](C(=O)N(C)C)C3)[C@H](C)[C@H]12` [Meropenem trihydrate], the “Growth inhibition, Compound” value was found to be 86%.

Take `CC[C@H]1OC(=O)[C@H](C)[C@@H](O[C@H]2C[C@@](C)(OC)[C@@H](O)[C@H](C)O2)[C@H](C)[C@@H](O[C@@H]2O[C@H](C)C[C@H](N(C)C)[C@H]2O)[C@](C)(O)C[C@@H](C)CN(C)[C@H](C)[C@@H](O)[C@]1(C)O` [Azithromycin]: the “Growth inhibition, Compound” value was 109%. With `C[C@@H]1O[C@@H]1P(=O)(O)O` [Fosfomycin Disodium], the “Growth inhibition, Compound” value worked out at 102%. To `CC1(C)S[C@@H]2[C@H](NC(=O)[C@H](C(=O)O)c3ccsc3)C(=O)N2[C@H]1C(=O)O` [Ticarcillin disodium] belongs 86%. `O=[N+]([O-])C(Br)(CO)CO` [Bronopol]: the “Growth inhibition, Compound” value is 100%.

Turning to `CCO/N=C(\C(=O)N[C@@H]1C(=O)N2C(C(=O)[O-])=C(Sc3nc(-c4cc[n+](C)cc4)cs3)CS[C@H]12)c1nsc(NP(=O)(O)O)n1` [Ceftaroline fosamil], the “Growth inhibition, Compound” value worked out at 93%. To `CNC[C@H](O)[C@@H](O)[C@H](O)[C@H](O)CO.Nc1nc(-n2cc(C(=O)O)c(=O)c3cc(F)c(N4CC(O)C4)c(Cl)c32)c(F)cc1F` [Delafloxacin meglumine] belongs 103%; to `C=CC1=C(C(=O)O)N2C(=O)[C@@H](NC(=O)/C(=N\O)c3csc(N)n3)[C@H]2SC1` [Cefdinir], 100%. As to `CC[C@H]1OC(=O)[C@H](C)[C@@H](O[C@H]2C[C@@](C)(OC)[C@@H](O)[C@H](C)O2)[C@H](C)[C@@H](O[C@@H]2O[C@H](C)C[C@H](N(C)C)[C@H]2O)[C@](C)(O)C[C@@H](C)C(=O)[C@H](C)[C@H]2OC(=O)O[C@@]21C` [Davercin], the “Growth inhibition, Compound” value is on record as 114%. To `C[C@@H](O)[C@H]1C(=O)N2C(C(=O)O)=C(SC3CN(C4=NCCS4)C3)[C@H](C)[C@H]12` [Tebipenem] belongs 109%; to `c1cnc2c(c1)ccc1cccnc12` [o-Phenanthroline], 79%. On to `CC[C@H]1OC(=O)[C@H](C)[C@@H](O[C@H]2C[C@@](C)(OC)[C@@H](O)[C@H](C)O2)[C@H](C)[C@@H](O[C@@H]2O[C@H](C)C[C@H](N(C)C)[C@H]2O)[C@](C)(OC)C[C@@H](C)C(=O)[C@H](C)[C@@H](O)[C@]1(C)O` [Clarithromycin], for which the “Growth inhibition, Compound” value is reported as 50%. To `CC(C)(O/N=C(\C(=O)N[C@@H]1C(=O)N2C(C(=O)[O-])=C(C[n+]3ccccc3)CS[C@H]12)c1csc(N)n1)C(=O)O` [Ceftazidime] belongs 53%.

In the case of `NC[C@H]1O[C@H](O[C@H]2[C@H](O)[C@@H](O[C@H]3O[C@H](CO)[C@@H](O)[C@H](N)[C@H]3O)[C@H](N)C[C@@H]2N)[C@H](N)C[C@@H]1O` [Tobramycin], the “Growth inhibition, Compound” value is recorded as 107%. On to `C[C@H]1c2cccc(O)c2C(=O)C2=C(O)[C@]3(O)C(=O)C(C(N)=O)=C(O)[C@@H](N(C)C)[C@@H]3[C@@H](O)[C@@H]21` [Doxycycline hydrochloride], for which the “Growth inhibition, Compound” value was determined as 114%. To `Cc1cn([C@H]2C=C[C@@H](CO)O2)c(=O)[nH]c1=O` [Stavudine] belongs 27%; to `Oc1c(I)cc(I)c2cccnc12` [Iodoquinol], 70%; to `CC1(C)S[C@@H]2[C@H](NC(=O)[C@H](N)c3ccccc3)C(=O)N2[C@H]1C(=O)OCOC(=O)[C@@H]1N2C(=O)C[C@H]2S(=O)(=O)C1(C)C` [Sultamicillin], 106%. To `OB1OCc2cc(F)ccc21` [Tavaborole] belongs 91%; to `Oc1cc(Cl)ccc1Oc1ccc(Cl)cc1Cl` [Triclosan], 79%. With `CCN[C@@H]1C[C@H](N)[C@@H](O[C@H]2OC(CN)=CC[C@H]2N)[C@H](O)[C@H]1O[C@H]1OC[C@](C)(O)[C@H](NC)[C@H]1O.CCN[C@@H]1C[C@H](N)[C@@H](O[C@H]2OC(CN)=CC[C@H]2N)[C@H](O)[C@H]1O[C@H]1OC[C@](C)(O)[C@H](NC)[C@H]1O.O=S(=O)(O)O.O=S(=O)(O)O.O=S(=O)(O)O.O=S(=O)(O)O.O=S(=O)(O)O` [Netilmicin sulfate], the “Growth inhibition, Compound” value came out at 109%.

On to `NC[C@H]1O[C@H](O[C@H]2[C@H](O)[C@@H](O[C@H]3O[C@H](CO)[C@@H](O)[C@H](N)[C@H]3O)[C@H](N)C[C@@H]2N)[C@H](O)[C@@H](O)[C@@H]1O` [Kanamycin sulfate], for which the “Growth inhibition, Compound” value is reported as 109%. In the case of `CCCCCCCCc1ccc(CCC(N)(CO)CO)cc1` [Fingolimod hydrochloride], the “Growth inhibition, Compound” value came out at 87%. Turning to `CO/N=C(/C(=O)N[C@@H]1C(=O)N2C(C(=O)O)=C(CSC(=O)c3ccco3)CS[C@H]12)c1csc(N)n1.Cl` [Ceftiofur hydrochloride], the “Growth inhibition, Compound” value was 84%.

As to `CO[C@@]1(NC(=O)CSCC#N)C(=O)N2C(C(=O)O)=C(CSc3nnnn3C)CS[C@@H]21` [Cefmetazole sodium], the “Growth inhibition, Compound” value amounted to 96%.

As for `O=C(O)c1cn(-c2ccc(F)cc2)c2cc(N3CCNCC3)c(F)cc2c1=O` [Sarafloxacin], the “Growth inhibition, Compound” value worked out at 109%. As to `CC(=O)OCC1=C(C(=O)O)N2C(=O)[C@@H](NC(=O)Cc3cccs3)[C@H]2SC1` [Cephalothin sodium], the “Growth inhibition, Compound” value is 79%. To `O=[N+]([O-])c1ccc(O)c2ncccc12` [Nitroxoline] belongs 105%. To `CN1CCN(c2c(F)cc3c(=O)c(C(=O)O)cn4c3c2OCN4C)CC1` [Marbofloxacin] belongs 108%. For the compound `C[C@@H]1CN(c2c(F)c(F)c3c(=O)c(C(=O)O)cn(C4CC4)c3c2F)C[C@H](C)N1` [Orbifloxacin], the “Growth inhibition, Compound” value is recorded as 113%. With `S=C=NCc1ccccc1` [Benzyl isothiocyanate], the “Growth inhibition, Compound” value was 71%. The result for `CC(=O)Oc1ccccc1C(=O)Nc1ncc([N+](=O)[O-])s1` [Nitazoxanide] reads 36%.

Values taken from publication PMC11358092, “Caspofungin enhances the potency of rifampin against Gram-negative bacteria” (Frontiers in Microbiology, 2024).
